Key:
[1] = Excretion mass balance in rats after a single oral dose of [14C]MGL-3196 (Group 1); format: in vivo, rat; conditions: for Percent Recovery, Carcass / Percent Recovery, Residues / Percent Recovery, Total: totals up to 168 h
Method: (§1) The study utilized 2 groups of male SD rats (Groups 1 and 2) and 1 group of male LE rats (Group 3); which were obtained from Hilltop Lab Animals, Inc. (Scottdale, Pa.). Group 1 was used for evaluation of excretion mass balance; Group 2 was used for evaluation of plasma total radioactivity PK; and Group 3 was used for evaluation of tissue distribution of total radioactivity. All rats received a single PO dose of [^14C]MGL-3196. The target dose was 5 mg/kg using a formulation prepared in a 4% DMSO/96% of 2% Klucel, 0.1% Tween-80, 0.09% methylparaben and 0.01% propylparaben in purified MilliQ water vehicle.
The following studies have been conducted: (a) in vitro drug protein binding, transporter (organic anion transporting polypeptide [OATP], P-glycoprotein [P-gp], breast cancer-related protein [BCRP], and multiple drug resistance protein 1 [MDR1]), and cytochrome P-450 enzyme assays to investigate absorption, distribution, and excretion; (b) in vivo MGL-3196 rat and dog oral PK and bioavailability studies; (c) in vivo ^14C-MGL-3196 rat and dog oral pharmacokinetics, absorption, excretion, and tissue distribution by quantitative whole-body autoradiography (QWBA) studies; and (d) liver disposition of MGL-3196 using an in vitro sandwiched hepatocyte model system (B-CLEAR® technology) in dog (SCDH) and human (SCHH) hepatocytes.

[2] = Dog 14C-MGL-3196 mass balance study; format: in vivo
Text: Tables 2A-2B show ^14C-MGL-3196 dog ADME study design.

[3] = Tissue distribution by quantitative whole-body autoradiography, blood and plasma radioactivity in LE rats (Group 3); format: in vivo, rat; conditions: for Tissue to Plasma Ratio, Adrenal Gland / Tissue to Plasma Ratio, Heart / Tissue to Plasma Ratio, Kidney / Tissue to Plasma Ratio, Liver / Tissue to Plasma Ratio, Lung / Tissue to Plasma Ratio, Muscle / Tissue to Plasma Ratio, Skin / Tissue to Plasma Ratio, Spleen / Tissue to Plasma Ratio, Thyroid / Tissue to Plasma Ratio, Brain: rat
Method: as §1

[4] = Plasma total radioactivity pharmacokinetics in SD rats (Group 2); format: in vivo, rat
Method: as §1

[5] = male SD rats Group 1, single PO 5 mg/kg, mean
[6] = male SD rats Group 1, single PO 5 mg/kg, mean, through 168 h
[7] = 3 male beagle dogs, 0-168 hr post-dose, Mean ± SD (% RSD)
[8] = male LE rats Group 3, single PO 5 mg/kg
[9] = pigmented male rats, single PO dose
[10] = male SD rats Group 2, single PO 5 mg/kg

SMILES: CC(C)c1cc(Oc2c(Cl)cc(-n3nc(C#N)c(=O)[nH]c3=O)cc2Cl)n[nH]c1=O [[^14C]MGL-3196]
- Percent Recovery, Carcass ([1]; Mean): 1.1%
- Percent Recovery, Residues ([1]; Mean): 1.3%
- Percent Recovery, Total ([1]; Mean): 87.2%
- Percent Recovery, Carcass ([1]; Ra#3): 1.0%
- Percent Recovery, Residues ([1]; Ra#3): 0.9%
- Percent Recovery, Total ([1]; Ra#3): 87.3%
- Percent Recovery, Carcass ([1]; Rat#1): 1.1%
- Percent Recovery, Residues ([1]; Rat#1): 1.7%
- Percent Recovery, Total ([1]; Rat#1): 82.6%
- Percent Recovery, Carcass ([1]; Rat#2): 1.2%
- Percent Recovery, Residues ([1]; Rat#2): 1.3%
- Percent Recovery, Total ([1]; Rat#2): 91.7%
- radioactivity recovered in the cage residues, % of the administered dose [1, 5]: 1.3%
- radioactivity recovered in the carcass, % of the administered dose [1, 5]: 1.1%
- radioactivity recovered in the feces, % of the administered dose [1, 6]: 68.6%
- radioactivity recovered in the urine, % of the administered dose [1, 6]: 16.2%
- total recovery of radioactivity, % of the administered dose [1, 6]: 87.2%
- % of Dose in Cage Residue [2, 7]: 4.55 ± 3.399 (74.8) %
- % of Dose in Feces [2, 7]: 76.3 ± 25.62 (33.6) %
- % of Dose in Urine [2, 7]: 2.57 ± 1.296 (50.4) %
- Total % of Dose Recovered (urine + feces + cage residue) [2, 7]: 83.37 ± 24.063 (28.9) %
- % of total administered recovered in feces ([2]; dog, 100 mg/kg): ~83%
- % of total administered recovered in urine ([2]; dog, 100 mg/kg): 2.5%
- share of the radioactivity recovered that was in feces ([2]; dog, 100 mg/kg): at least 92%
- share of the radioactivity recovered that was in urine ([2]; dog, 100 mg/kg): 2.7%
- Tissue to Plasma Ratio, Adrenal Gland ([3]; 1 h): 0.34
- Tissue to Plasma Ratio, Heart ([3]; 1 h): 0.30
- Tissue to Plasma Ratio, Kidney ([3]; 1 h): 3.51
- Tissue to Plasma Ratio, Liver ([3]; 1 h): 16.28
- Tissue to Plasma Ratio, Lung ([3]; 1 h): 0.41
- Tissue to Plasma Ratio, Muscle ([3]; 1 h): 0.12
- Tissue to Plasma Ratio, Skin ([3]; 1 h): 0.21
- Tissue to Plasma Ratio, Spleen ([3]; 1 h): 0.17
- Tissue to Plasma Ratio, Thyroid ([3]; 1 h): 0.27
- Tissue to Plasma Ratio, Adrenal Gland ([3]; 2 h): 0.35
- Tissue to Plasma Ratio, Heart ([3]; 2 h): 0.26
- Tissue to Plasma Ratio, Kidney ([3]; 2 h): 2.28
- Tissue to Plasma Ratio, Liver ([3]; 2 h): 12.40
- Tissue to Plasma Ratio, Lung ([3]; 2 h): 0.42
- Tissue to Plasma Ratio, Muscle ([3]; 2 h): 0.07
- Tissue to Plasma Ratio, Skin ([3]; 2 h): 0.23
- Tissue to Plasma Ratio, Spleen ([3]; 2 h): 0.10
- Tissue to Plasma Ratio, Thyroid ([3]; 2 h): 0.45
- Tissue to Plasma Ratio, Adrenal Gland ([3]; 4 h): 0.28
- Tissue to Plasma Ratio, Brain ([3]; 4 h): 0.03
- Tissue to Plasma Ratio, Heart ([3]; 4 h): 0.29
- Tissue to Plasma Ratio, Kidney ([3]; 4 h): 2.97
- Tissue to Plasma Ratio, Liver ([3]; 4 h): 12.76
- Tissue to Plasma Ratio, Lung ([3]; 4 h): 0.48
- Tissue to Plasma Ratio, Muscle ([3]; 4 h): 0.07
- Tissue to Plasma Ratio, Skin ([3]; 4 h): 0.30
- Tissue to Plasma Ratio, Spleen ([3]; 4 h): 0.13
- Tissue to Plasma Ratio, Thyroid ([3]; 4 h): 0.20
- Tissue to Plasma Ratio, Adrenal Gland ([3]; 8 h): 0.56
- Tissue to Plasma Ratio, Brain ([3]; 8 h): 0.09
- Tissue to Plasma Ratio, Heart ([3]; 8 h): 0.62
- Tissue to Plasma Ratio, Kidney ([3]; 8 h): 2.98
- Tissue to Plasma Ratio, Liver ([3]; 8 h): 11.90
- Tissue to Plasma Ratio, Lung ([3]; 8 h): 0.68
- Tissue to Plasma Ratio, Muscle ([3]; 8 h): 0.23
- Tissue to Plasma Ratio, Skin ([3]; 8 h): 0.72
- Tissue to Plasma Ratio, Spleen ([3]; 8 h): 0.36
- Tissue to Plasma Ratio, Thyroid ([3]; 8 h): 0.46
- Tissue to Plasma Ratio, Adrenal Gland ([3]; Cmax): 0.51
- Tissue to Plasma Ratio, Brain ([3]; Cmax): 0.08
- Tissue to Plasma Ratio, Heart ([3]; Cmax): 0.57
- Tissue to Plasma Ratio, Kidney ([3]; Cmax): 2.97
- Tissue to Plasma Ratio, Liver ([3]; Cmax): 12.76
- Tissue to Plasma Ratio, Lung ([3]; Cmax): 0.62
- Tissue to Plasma Ratio, Muscle ([3]; Cmax): 0.21
- Tissue to Plasma Ratio, Skin ([3]; Cmax): 0.65
- Tissue to Plasma Ratio, Spleen ([3]; Cmax): 0.33
- Tissue to Plasma Ratio, Thyroid ([3]; Cmax): 0.42
- Radioactivity concentrations at 1392 h post-dose in 7 of 40 tissues (blood, liver, Harderian gland, pancreas, pigmented skin, lung, eye lens) ([3]; male LE rats): > 7.90 ng equiv/g
- radioactivity quantifiable in blood through ([3]; male LE rats): 768 h
- radioactivity quantifiable in plasma through ([3]; male LE rats): 168 h
- AUCinf obs of blood total radioactivity [3, 8]: 54361 ng equiv·h/g
- AUCinf obs of plasma total radioactivity [3, 8]: 20430 ng equiv·h/mL
- Cmax of plasma total radioactivity (by LSC) [3, 8]: 1078 ng equiv/mL
- Liver AUC (exposure) higher than plasma [3, 9]: approximately 10 ×
- blood AUC higher than plasma [3, 9]: about 2 ×
- kidney cortex AUC higher than plasma [3, 9]: approximately 3 ×
- liver:plasma AUCall ratio [3, 9]: 10.5
- Liver AUC (exposure) higher than plasma ([3]; pigmented male rats, single PO dose, listed as 14C-MGL-3196): ~10 ×
- Tissue to plasma ratios for all tissues except liver, kidney, urinary bladder, and cecum ([3]; throughout the distribution phase (up to 8 h post-dose)): < 1
- mean AUCinf obs of plasma total radioactivity [4, 10]: 25346 ng equiv·h/mL
- mean Cmax of plasma total radioactivity [4, 10]: 2230 ng equiv/mL
- radioactivity quantifiable in plasma through ([4]; male SD rats, last time point for this group): 48 h

Source: patent US11090308B2, “Methods of treating liver disorders or lipid disorders with a THR-beta agonist” (Madrigal Pharmaceuticals, Inc., priority 2016, dated 2021)
